“And” between values parts separate entries of the source, which are not always exact repeats. Equal values may be shown once.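 Five concentrations, 48 hours, 96-well plates. GI50 = concentration required for 50% inhibition of growth. The concentration for full growth arrest is given as TGI.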
Legend:
Test in all cases: NCI-60 cell line screen, 48 h
NCI-H522 lung = tested on: NCI-H522 lung
SK-MEL-5 melanoma = tested on: SK-MEL-5 melanoma
OVCAR-5 ovarian = tested on: OVCAR-5 ovarian
SK-MEL-28 melanoma = tested on: SK-MEL-28 melanoma
HCT-15 colon = tested on: HCT-15 colon
SF-539 CNS = tested on: SF-539 CNS
TK-10 renal = tested on: TK-10 renal
MDA-MB-231 breast = tested on: MDA-MB-231 breast

SMILES	GI50 (NCI-H522 lung)	TGI (NCI-H522 lung)	GI50 (SK-MEL-5 melanoma)	TGI (SK-MEL-5 melanoma)	GI50 (OVCAR-5 ovarian)	TGI (OVCAR-5 ovarian)	GI50 (SK-MEL-28 melanoma)	TGI (SK-MEL-28 melanoma)	GI50 (HCT-15 colon)	TGI (HCT-15 colon)	GI50 (SF-539 CNS)	TGI (SF-539 CNS)	GI50 (TK-10 renal)	TGI (TK-10 renal)	GI50 (MDA-MB-231 breast)	TGI (MDA-MB-231 breast)
CCS(=O)(=O)Nc1cccc(Nc2c3cccc(C)c3nc3c(C)cccc23)c1OC	2.58 µM	19.5 µM	1.1 µM	8.21 µM	3.86 µM	41.5 µM	4.29 µM	> 100 µM	1.31 µM	> 100 µM	0.708 µM	6.23 µM	2.24 µM	11.5 µM	5.2 µM	41.4 µM
C/C(=C(\c1ccc(OCCN2CCCCCC2)cc1)c1ccc(OC(=O)Cc2ccccc2)cc1)c1ccc(Cl)cc1	3.6 µM	6.87 µM	2.36 µM	4.58 µM	2.77 µM	6.45 µM	2.52 µM	5.03 µM	1.79 µM	4.26 µM	2.36 µM	4.82 µM	4.43 µM	16.6 µM	3.04 µM	5.69 µM
CSc1ncnc2c1ncn2C1OC(CO)C(O)OC1O (centres undefined)	–	> 100 µM	–	17.6 µM	–	> 23.3 µM	–	69.5 µM	–	> 100 µM	–	16.9 µM	–	1.19 µM	–	14.6 µM
S=C(N/N=C(/c1ccccc1)c1ccccn1)N1CCCCCC1	1.28 µM	3.48 µM and 1.13 µM	0.0199 µM	0.138 µM and 1.17 µM	< 0.001 µM	2.11 µM	0.863 µM and 0.639 µM	2.41 µM and 2.15 µM	0.00327 µM	2.05 µM and 1.53 µM	0.329 µM	1.43 µM and 1.63 µM	–	1.52 µM and 1.86 µM	< 0.001 µM	1.87 µM and 1.83 µM
COc1ccc(-c2nc(N3CCN(C(=O)C4CCCCC4)CC3)c3c4c(sc3n2)CCCC4)cc1	27.9 µM	96.9 µM	68.9 µM	> 100 µM	> 100 µM	> 100 µM	> 100 µM	> 100 µM	> 100 µM	> 100 µM	39.4 µM	> 100 µM	34.4 µM	90.8 µM	19.4 µM	82.8 µM
COC(=O)/C=C/c1cn(C(C)=O)c2ccc(Br)cc12	21 µM	97.5 µM	33.5 µM	> 100 µM	31 µM	> 83.3 µM	49 µM	> 100 µM	23.4 µM	> 100 µM	29.9 µM	> 100 µM	24.7 µM	71.4 µM	11.8 µM	29.5 µM
O=C(NCc1ccco1)c1ccc(NC2=C(Cl)C(=O)N(Cc3ccccc3)C2=O)cc1	19.5 µM	57.9 µM	27.4 µM	73.4 µM	19.7 µM	44.9 µM	19.9 µM	43.4 µM	17.7 µM	74.4 µM	22.2 µM	41 µM	30.7 µM	76.7 µM	24 µM	62.1 µM
COc1cc(-c2ncn(/C=C\C(=O)OC(C)C)n2)cc(C(F)(F)F)c1	0.0286 µM and 0.0535 µM	0.734 µM and 0.597 µM	0.274 µM and 0.11 µM	1.8 µM and 2.72 µM	0.196 µM and 0.154 µM	17.3 µM and 14.8 µM	0.0461 µM and 0.0693 µM	2.24 µM and 8.58 µM	0.0715 µM and 0.0543 µM	7.93 µM and 6.39 µM	0.0146 µM and 0.018 µM	0.225 µM and 0.187 µM	0.271 µM and 0.123 µM	6.91 µM and 5.42 µM	0.065 µM and 0.0398 µM	4.81 µM and 7.12 µM

Reference: PubChem BioAssay (NCI)
